± gives the standard deviation of the averaged measurements.
Legend:
Assay in all cases: level (log10 ratio to DMSO vehicle control); higher = higher biomarker level / cell amount than vehicle control
Details in all cases: in DMSO
[1] = compound: CCN(CCO)S(=O)(=O)C(F)(F)C(F)(F)C(F)(F)C(F)(F)C(F)(F)C(F)(F)C(F)(F)C(F)(F)F [N-Ethyl-N-(2-hydroxyethyl)perfluorooctanesulfonamide]
Method: (§1)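 BioMAP Diversity Plus panel of 12 human primary cell co-culture systems (3C, 4H, LPS, SAg, BT, BF4T, BE3C, CASM3C, HDF3CGF, KF3CT, MyoF, Mphg). Compounds were added 1 h before stimulation and left for 24 h (MyoF 48 h; BT 72 h for soluble read-outs or 6 d for IgG). Biomarkers were read by ELISA, cytotoxicity by SRB, PBMC viability and proliferation by Alamar Blue. Each well value was divided by the mean of 8 DMSO control wells on the same plate and log10 transformed; duplicate blinded samples were tested at 4 concentrations.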

[2] = compound: COC(=O)CCC(F)(F)C(F)(F)C(F)(F)C(F)(F)F [Methyl 2H,2H,3H,3H-perfluoroheptanoate]
Method: as §1

[3] = compound: FC(F)(F)C(F)(F)C(F)(F)C(F)(F)C(F)(F)C(F)(F)C(F)(F)C(F)(F)CCS [2-(Perfluorooctyl)ethanthiol]
Method: as §1

[4] = compound: FC(F)(F)C(F)(F)C(F)(F)C(F)(F)C(F)(F)CCI [1-Iodo-1H,1H,2H,2H-perfluoroheptane]
Method: as §1

[5] = compound: NCC(F)(F)C(F)(F)C(F)(F)C(F)(F)C(F)(F)C(F)(F)C(F)(F)F [1H,1H-Perfluorooctylamine]
Method: as §1

[6] = compound: O=C(O)C(F)(F)C(F)(F)C(F)(F)C(F)(F)C(F)(F)C(F)(F)C(F)(F)C(F)F [9-H-Perfluorononanoic acid]
Method: as §1

[7] = compound: OCCC(F)(F)C(F)(F)C(F)(F)C(F)(F)C(F)(F)C(F)(F)F [6:2 Fluorotelomer alcohol]
Method: as §1

Test System | level (log10) ([1]; 6700 nM) | level (log10) ([1]; 20000 nM) | level (log10) ([2]; 6700 nM) | level (log10) ([2]; 20000 nM) | level (log10) ([2]; 60000 nM) | level (log10) ([3]; 6700 nM) | level (log10) ([3]; 20000 nM) | level (log10) ([4]; 6700 nM) | level (log10) ([4]; 20000 nM) | level (log10) ([4]; 60000 nM) | level (log10) ([5]; 6700 nM) | level (log10) ([5]; 20000 nM) | level (log10) ([5]; 60000 nM) | level (log10) ([6]; 6700 nM) | level (log10) ([6]; 20000 nM) | level (log10) ([6]; 60000 nM) | level (log10) ([7]; 6700 nM) | level (log10) ([7]; 20000 nM)
MyoF:CXCL8/IL-8 | -0.193 ± 0.011 | -0.12 ± 0.022 | -0.0085 ± 0.00071 | -0.001 ± 0.0071 | 0.0155 ± 0.039 | -0.0085 ± 0.011 | 0.007 ± 0.016 | -0.0015 ± 0.019 | 0.028 ± 0.018 | 0.043 ± 0.038 | 0.0025 ± 0.021 | -0.0095 ± 0.0035 | -0.002 ± 0.023 | 0.021 ± 0.023 | 0.003 ± 0.013 | -0.001 ± 0.023 | 0.0185 ± 0.032 | -0.0045 ± 0.0021
3C:CD141/Thrombomodulin | 0.046 ± 0.03 | 0.261 ± 0.14 | -0.0355 ± 0.032 | -0.017 ± 0.0042 | -0.0225 ± 0.013 | 0.0105 ± 0.0078 | -0.042 ± 0.05 | -0.0385 ± 0.025 | -0.047 ± 0.031 | -0.031 ± 0.0057 | -0.036 ± 0.033 | -0.0295 ± 0.033 | -0.0385 ± 0.039 | 0.012 ± 0.0085 | -0.003 ± 0.0085 | -0.0365 ± 0.0078 | -0.019 ± 0.037 | -0.0445 ± 0.021
HDF3CGF:Collagen III | -0.0465 ± 0.05 | -0.142 ± 0.044 | 0.0065 ± 0.016 | 0.0095 ± 0.00071 | 0.0105 ± 0.015 | 0.0005 ± 0.033 | 0.002 ± 0.035 | 0.0695 ± 0.026 | -0.008 ± 0.12 | -0.0595 ± 0.022 | -0.009 ± 0.021 | -0.0055 ± 0.00071 | -0.0165 ± 0.023 | -0.047 ± 0.013 | -0.115 ± 0.013 | -0.155 ± 0.057 | 0.001 ± 0.038 | -0.014 ± 0.021
KF3CT:SRB | -0.015 | -0.0305 ± 0.0092 | -0.018 ± 0.016 | -0.0055 ± 0.005 | 0 ± 0.018 | -0.0015 ± 0.0021 | 0.002 ± 0.0042 | 0.002 ± 0.0071 | -0.0045 ± 0.00071 | -0.0065 ± 0.0078 | -0.01 ± 0.011 | -0.0065 ± 0.013 | 0.0065 ± 0.035 | -0.0175 ± 0.005 | -0.019 ± 0.0014 | -0.032 ± 0.0042 | -0.0085 ± 0.0078 | -0.0225 ± 0.005
3C:CD106/VCAM-1 | 0.0005 ± 0.005 | 0.005 ± 0.0085 | -0.0175 ± 0.028 | -0.0125 ± 0.013 | 0.0065 ± 0.005 | -0.016 ± 0.027 | -0.0105 ± 0.036 | -0.01 ± 0.0028 | -0.02 ± 0.0042 | -0.0205 ± 0.022 | -0.0035 ± 0.00071 | -0.016 ± 0.0057 | -0.005 ± 0.0099 | -0.025 ± 0.016 | -0.018 ± 0.035 | -0.0185 ± 0.04 | 0.0025 ± 0.0092 | -0.0075 ± 0.0021
HDF3CGF:CCL2/MCP-1 | -0.0485 ± 0.005 | -0.1335 ± 0.00071 | -0.039 ± 0.021 | -0.0375 ± 0.06 | -0.014 ± 0.014 | -0.0505 ± 0.03 | -0.077 ± 0.014 | 0.0085 ± 0.0035 | 0.02 ± 0.021 | -0.013 ± 0.035 | -0.006 ± 0.016 | -0.0045 ± 0.012 | -0.0165 ± 0.0078 | -0.023 ± 0.028 | -0.0185 ± 0.044 | -0.0415 ± 0.052 | 0.0015 ± 0.0035 | 0.0095 ± 0.019
BE3C:MMP-9 | 0.018 ± 0.0071 | -0.0535 ± 0.04 | -0.001 ± 0.011 | -0.0065 ± 0.023 | -0.0155 ± 0.013 | -0.0195 ± 0.011 | -0.069 ± 0.018 | -0.0125 ± 0.0092 | 0.026 ± 0.0099 | 0.0525 ± 0.021 | 0.001 ± 0.023 | -0.0105 ± 0.032 | 0.005 ± 0.048 | 0.015 ± 0.02 | 0.0415 ± 0.00071 | 0.0255 ± 0.0021 | 0.0055 ± 0.0078 | -0.0215 ± 0.022
lMphg:CD69 | -0.0715 ± 0.012 | -0.129 ± 0.0099 | -0.016 ± 0.028 | -0.029 ± 0.033 | 0.006 ± 0.017 | -0.0425 ± 0.039 | -0.069 ± 0.045 | -0.0365 ± 0.083 | -0.063 ± 0.072 | -0.0405 ± 0.066 | -0.039 ± 0.0099 | -0.0475 ± 0.019 | -0.0265 ± 0.00071 | -0.0445 ± 0.088 | -0.038 ± 0.054 | -0.072 ± 0.0099 | -0.0205 ± 0.0078 | -0.017 ± 0.0028
BE3C:PAI-I | -0.066 ± 0.0071 | -0.092 ± 0.017 | -0.0065 ± 0.025 | -0.006 ± 0.044 | -0.0055 ± 0.005 | -0.015 ± 0.044 | -0.05 ± 0.011 | -0.025 ± 0.061 | -0.0105 ± 0.056 | 0.008 ± 0.1 | -0.0075 ± 0.028 | -0.008 ± 0.014 | -0.002 ± 0.04 | 0.0195 ± 0.04 | 0.0405 ± 0.023 | -0.0295 ± 0.0021 | -0.0205 ± 0.03 | -0.025 ± 0.048
KF3CT:CXCL9/MIG | 0.004 ± 0.0085 | -0.032 ± 0.013 | -0.003 ± 0.0057 | 0.004 ± 0.0042 | -0.02 ± 0.0028 | 0.016 ± 0.018 | 0.014 ± 0.0042 | 0.003 ± 0.0014 | 0.003 | 0.006 ± 0.0014 | 0 ± 0.0057 | 0.0005 ± 0.018 | -0.005 ± 0.0099 | -0.008 ± 0.0042 | -0.009 ± 0.0028 | -0.0045 ± 0.00071 | 0.0045 ± 0.0035 | 0.009
HDF3CGF:CD54/ICAM-1 | 0.133 ± 0.019 | 0.089 ± 0.0042 | -0.0095 ± 0.0092 | 0.012 ± 0.0028 | -0.0025 ± 0.028 | -0.012 ± 0.0057 | -0.0145 ± 0.021 | -0.0065 ± 0.013 | -0.0215 ± 0.00071 | -0.0195 ± 0.0064 | -0.003 ± 0.013 | -0.0055 ± 0.011 | -0.0095 ± 0.0078 | -0.035 ± 0.042 | -0.052 ± 0.021 | -0.045 ± 0.02 | -0.01 ± 0.0071 | -0.0075 ± 0.0064
3C:CCL2/MCP-1 | -0.032 ± 0.016 | -0.145 ± 0.032 | 0.011 ± 0.0085 | 0.007 ± 0.013 | 0.0285 ± 0.028 | 0.0045 ± 0.035 | 0.0135 ± 0.0078 | -0.0135 ± 0.0021 | -0.009 ± 0.0099 | 0.0045 ± 0.025 | -0.003 ± 0.0099 | 0.0095 ± 0.021 | 0.0275 ± 0.028 | -0.001 ± 0.021 | 0.0125 ± 0.0092 | 0.0415 ± 0.005 | 0.008 ± 0.014 | -0.008 ± 0.0071
MyoF:CD106/VCAM-1 | -0.0675 ± 0.0064 | -0.534 ± 0.053 | -0.003 ± 0.0014 | 0.0105 ± 0.021 | 0.018 ± 0.011 | 0.0155 ± 0.00071 | -0.0735 ± 0.083 | 0.001 ± 0.0042 | -0.026 ± 0.0028 | -0.0205 ± 0.0064 | -0.007 ± 0.0085 | -0.0295 ± 0.011 | 0.002 ± 0.013 | -0.015 ± 0.02 | -0.0135 ± 0.005 | -0.0125 ± 0.025 | 0.016 ± 0.0071 | 0.0045 ± 0.019
CASM3C:CD141/Thrombomodulin | 0.078 ± 0.014 | 0.191 ± 0.013 | -0.042 ± 0.024 | -0.017 ± 0.048 | 0.003 ± 0.017 | -0.034 ± 0.048 | -0.0065 ± 0.09 | -0.011 ± 0.0085 | 0.0015 ± 0.012 | 0.0845 ± 0.012 | -0.017 ± 0.025 | -0.0055 ± 0.005 | 0.031 ± 0.045 | -0.003 ± 0.0099 | -0.0075 ± 0.0035 | 0.0075 ± 0.0021 | 0.0235 ± 0.0092 | 0.005 ± 0.023
CASM3C:CCL2/MCP-1 | 0.003 ± 0.017 | -0.017 ± 0.0057 | -0.0075 ± 0.011 | -0.003 ± 0.0071 | 0.004 ± 0.03 | 0.008 ± 0.0014 | 0.0155 ± 0.0092 | -0.0045 ± 0.011 | -0.006 ± 0.028 | -0.001 ± 0.037 | -0.0145 ± 0.044 | -0.0245 ± 0.0092 | 0.009 ± 0.04 | 0.0125 ± 0.0092 | -0.0015 ± 0.00071 | 0.017 ± 0.0071 | -0.0205 ± 0.00071 | -0.019 ± 0.0028
lMphg:sIL-10 | 0 ± 0.024 | -0.0505 ± 0.028 | -0.0515 ± 0.029 | -0.117 ± 0.12 | 0.0005 ± 0.037 | -0.122 ± 0.065 | 0.0325 ± 0.046 | 0.003 ± 0.033 | 0.01 ± 0.017 | -0.114 ± 0.062 | -0.067 ± 0.14 | -0.002 ± 0.082 | -0.022 ± 0.04 | -0.0465 ± 0.00071 | -0.0225 ± 0.04 | -0.642 ± 0.04 | -0.032 ± 0.02 | -0.143 ± 0.041
